The subject of one test is PA-TU-8902 cells. As to the kind of experiment: Non-anchorage-dependent cell growth inhibition (spheroid 3D culture), PA-TU-8902. It counts as cell-based, human. As to conditions: Homo sapiens, PaTu 8902, 144 h; KRAS G12V mutant-positive, 3D spheroid, six days, CellTiter-Glo 2.0; read-out: PA-TU-8902 IC50. As to the method: (§1) Test Example 3: Evaluation of Non-Anchorage-Dependent Cell Growth Inhibitory Activity on Human KRAS G12V Mutant-Positive Pancreatic Cancer Line PA-TU-8902, Human KRAS G12D Mutant-Positive Pancreatic Cancer Line AsPC-1 or Human KRAS G12C Mutant-Positive Pancreatic Cancer Line MIA PaCa-2
(§2) The non-anchorage-dependent cell growth inhibitory activities of subject compounds were evaluated by spheroid 3D cell culture.
(§3) PA-TU-8902 cells, AsPC-1 cells or MIA PaCa-2 cells (RIKEN BRC, RCB2094) were seeded at 36 µL/well on a low-cell-adhesive round bottom 384-well plate (Prime Surface: from Sumitomo Bakelite) to give 5×10^2 cells per well. The PA-TU-8902 cells were under the same conditions as in Test Example 1-1, and the AsPC-1 cells were under the same conditions as in Test Example 1-2. For the MIA PaCa-2 cells, RPMI-1640 medium containing 10% fetal bovine serum was used in the presence of 5% CO2 at 37° C.
(§4) The next day, the subject compounds (6-9 points having final concentrations in the range of 3 μM to 0.3 nM) and DMSO, which was the solvent for the subject compounds, as a negative control were diluted 100-fold with a fresh medium and were each added at 4 μL per well. After culturing in the presence of 5% CO2 at 37° C. for six days, CellTiter-Glo 2.0 (from Promega) was added at 20 μL per well. After stirring with a plate mixer (from FINEPCR) at normal temperature for an hour, the luminescent signals were measured with ARVO X3 (from PerkinElmer).
(§5) With the signaling value in treatment with DMSO taken as 0% inhibition and with the signaling value in the medium alone without cells taken as 100% inhibition, the 50% inhibition values (IC50) were calculated by Sigmoid-Emax model nonlinear regression analysis.
(In general: In ATP-based viability assays light output follows the ATP content of the culture.)

The subject of another test is MIA PaCa-2 cells. As to the kind of experiment: Non-anchorage-dependent cell growth inhibition (spheroid 3D culture), MIA PaCa-2. It counts as cell-based. As to conditions: Homo sapiens, MIA PaCa-2, 144 h; KRAS G12C mutant-positive, 3D spheroid, six days, CellTiter-Glo 2.0; read-out: MIA PaCa-2 IC50. The protocol: as §1, §2, §3, §4, §5
Another test has as its system AsPC-1 cells. As to the kind of experiment: Non-anchorage-dependent cell growth inhibition (spheroid 3D culture), AsPC-1. In kind it is cell-based. The following applies: Homo sapiens, ASPC1, 144 h; KRAS G12D mutant-positive, 3D spheroid, six days, CellTiter-Glo 2.0; read-out: AsPC-1 IC50. The protocol: as §1, §2, §3, §4, §5
The subject of test [1] is phosphorylation of ERK (Thr202/Tyr204). As to the kind of experiment: ERK phosphorylation inhibitory activity, cell ELISA, PA-TU-8902. In kind it is cell-based. The following applies: Homo sapiens, PaTu 8902; PA-TU-8902 cells, 24 hours, 100% = 300 nM trametinib; read-out: IC50 (ERK phosphorylation inhibition). As to the method:
Test Example 2: Evaluation of ERK Phosphorylation Inhibitory Activity on Human KRAS G12V Mutant-Positive Pancreatic Cancer Line PA-TU-8902
The ERK phosphorylation inhibitory activities of subject compounds were evaluated by measuring phosphorylation of the 202th threonine (Thr202) and the 204th tyrosine (Tyr204) of ERK located downstream of the KRAS signal by cell ELISA.
PA-TU-8902 cells were seeded at 36 µL/well on a 384-well plate (from Greiner bio-one) to give 5.0×10^3 cells per well. The cell culture conditions were the same conditions as in Test Example 1-1.
The next day, the subject compounds (9 points having final concentrations in the range of 3 μM to 0.3 nM), trametinib (MEK inhibitor) of a final concentration of 300 nM as a positive control and DMSO, which was the solvent for the subject compounds, as a negative control were diluted 100-fold with a fresh medium and were each added at 4 μL per well, followed by culturing for 24 hours. After culturing, a 30% glyoxal solution (40% glyoxal [from Nacalai Tesque] was diluted with PBS) was quickly added at 30 μL per well, and the plate was allowed to stand for an hour and 30 minutes at room temperature to thus immobilize the cells. Then, the plate was centrifuged (110×g, seven seconds, hereinafter centrifugation was performed under the same conditions unless otherwise specified) to remove the supernatant, and 0.1% Triton X-100-containing PBS was added at 20 μL per well. After allowing the plate to stand for 10 minutes at room temperature, the supernatant was removed by centrifugation, and the same operation was further repeated. Next, 0.5% SDS-containing PBS was added at 20 μL per well. The plate was allowed to stand at room temperature for 30 minutes and was then centrifuged to remove the supernatant. Subsequently, a blocking solution (Intercept Blocking Buffer) was added at 20 μL per well, and the plate was allowed to stand for an hour at room temperature. The supernatant was removed by centrifugation, and an ERK (Thr202/Tyr204) phosphorylation antibody (Phospho-p44/42 MAPK (Erk 1/2) (Thr202/Tyr204) (D13.14.4E) XP Rabbit mAb; from Cell Signaling Technology) diluted 2,500-fold with the blocking solution was added at 15 μL per well as a primary antibody. The plate was allowed to stand at 4° C. overnight.
The next day, the plate was centrifuged to remove the supernatant, and 0.05% Tween-20-containing PBS (from Thermo Scientific; 20×PBS Tween-20 was diluted 20-fold with ion exchange water and used) was added at 50 μL per well. The supernatant was removed by centrifugation to thus wash each well. The washing was performed three times in total. After washing, an anti-rabbit IgG antibody diluted 1,000-fold with the blocking solution was added at 15 μL per well as a secondary antibody, and the plate was allowed to stand for an hour at room temperature. The plate was centrifuged to remove the supernatant, and each well was washed three times with 0.05% Tween-20-containing PBS in the same manner as after the primary antibody reaction. Centrifugation after the third washing was performed at 171×g for 17 seconds. After removing the supernatant, the plate was dried as it was with air at room temperature for three hours or more, and the 800-nm fluorescent signals were measured with Aerius.
With the signaling value at the time of addition of DMSO taken as 0% inhibition and with the signaling value at the time of addition of 300 nM trametinib taken as 100% inhibition, the 50% inhibition values (IC50) were calculated by Sigmoid-Emax model nonlinear regression analysis.
(In general: An ELISA detects its analyte on a solid surface through an enzyme-linked reagent.)

This is an account of results in patent US20260049072A1, “HETEROCYCLIC COMPOUND FOR INDUCING DEGRADATION OF MUTANT KRAS PROTEIN” (Astellas Pharma Inc., priority 2022, published 2026).

Each structure is given as a SMILES string.

As for `CO[C@@H](C)COc1cc(OC2CN(C(=O)NCCN(C)C)C2)c2cc(C3CC3)c(-c3c(C)c(F)cc4[nH]ncc34)c(OCc3ccc(-c4cn([C@H](C(=O)N5C[C@H](O)C[C@H]5C(=O)N[C@@H](CO)c5ccc(-n6cncn6)cc5)C(C)C)nn4)cc3)c2n1` (atropisomer, axis not shown; (M)) [Example 12, (4R)-1-[(2S)-2-(4-{4-[({(7M)-6-cyclopropyl-4-[(1-{[2-(dimethylamino)ethyl]carbamoyl}azetidin-3-yl)oxy]-7-(6-fluoro-5-methyl-1H-indazol-4-yl)-2-[(2S)-2-methoxypropoxy]quinolin-8-yl}oxy)methyl]phenyl}-1H-1,2,3-triazol-1-yl)-3-methylbutanoyl]-4-hydroxy-N-{(1R)-2-hydroxy-1-[4-(1H-1,2,4-triazol-1-yl)phenyl]ethyl}-L-prolinamide], the IC50 (commonly the concentration that gives 50% inhibition) in the test on PA-TU-8902 cells turned out to be 36 nM; in the test with MIA PaCa-2 cells, 20 nM; in the test with AsPC-1 cells it was 17 nM; in test [1], 18 nM.

In the case of `Cc1ncsc1-c1ccc([C@H](CO)NC(=O)[C@@H]2C[C@@H](O)CN2C(=O)[C@H](C(C)C)n2cc(-c3ccc(COc4c(-c5c(C)c(F)cc6[nH]ncc56)c(C5CC5)cc5c(NCc6cccnc6)nc(OC6CCOCC6)nc45)cc3)nn2)cc1` [Example 29], the IC50 with PA-TU-8902 cells is 63 nM; in the test with MIA PaCa-2 cells, 5 nM; with AsPC-1 cells it was 25 nM; in test [1] it was 15 nM.

`CO[C@@H](C)COc1nc(NC2CN(C(=O)O[C@H]3C[C@@H](N(C)C)C3)C2)c2cc(C3CC3)c(-c3c(C)c(F)cc4[nH]ncc34)c(OCc3ccc(-c4cn([C@H](C(=O)N5C[C@H](O)C[C@H]5C(=O)N[C@@H](CO)c5ccc(N6CCOC6=O)cc5)C(C)C)nn4)cc3)c2n1` (atropisomer, axis not shown) [Example 4]: the IC50 stood at 72 nM in the test with PA-TU-8902 cells, 22 nM with MIA PaCa-2 cells, 38 nM in the test on AsPC-1 cells and 48 nM in test [1].

As for `CO[C@@H](C)COc1nc(NC2CN(C(=O)N3CC(CN(C)C)C3)C2)c2cc(C3CC3)c(-c3c(C)c(F)cc4[nH]ncc34)c(OCc3ccc(-c4cn([C@H](C(=O)N5C[C@H](O)C[C@H]5C(=O)N[C@@H](CO)c5ccc(-c6scnc6C)cc5)C(C)C)nn4)cc3)c2n1` (atropisomer, axis not shown) [Example 25], the half-inhibitory concentration (IC50) with PA-TU-8902 cells is 41 nM; in the test on MIA PaCa-2 cells, 16 nM; in the test with AsPC-1 cells it was 14 nM; in test [1] it was 13 nM.

In the case of `CO[C@@H](C)COc1cc(OC2CN(C(=O)CCCN(C)C)C2)c2cc(C3CC3)c(-c3c(C)c(F)cc4[nH]ncc34)c(OCc3ccc(-c4cn([C@H](C(=O)N5C[C@H](O)C[C@H]5C(=O)N[C@@H](CO)c5ccc(-n6cncn6)cc5)C(C)C)nn4)cc3)c2n1` (atropisomer, axis not shown; (M)) [Example 41, (4R)-1-[(2S)-2-(4-{4-[({(7M)-6-cyclopropyl-4-({1-[4-(dimethylamino)butanoyl]azetidin-3-yl}oxy)-7-(6-fluoro-5-methyl-1H-indazol-4-yl)-2-[(2S)-2-methoxypropoxy]quinolin-8-yl}oxy)methyl]phenyl}-1H-1,2,3-triazol-1-yl)-3-methylbutanoyl]-4-hydroxy-N-{(1R)-2-hydroxy-1-[4-(1H-1,2,4-triazol-1-yl)phenyl]ethyl}-L-prolinamide], the IC50 stood at 52 nM in the test with PA-TU-8902 cells, 23 nM in the test with MIA PaCa-2 cells, 29 nM with AsPC-1 cells and 24 nM in test [1].

Regarding `CO[C@@H](C)COc1nc(N2CC(C#N)C2)c2cc(C3CC3)c(-c3c(C)c(F)cc4[nH]ncc34)c(OCc3ccc(-c4cn([C@H](C(=O)N5C[C@H](O)C[C@H]5C(=O)N[C@@H](CO)c5ccc(-c6scnc6C)cc5)C(C)C)nn4)cc3)c2n1` (atropisomer, axis not shown) [Example 20], the half-inhibitory concentration (IC50) in the test on PA-TU-8902 cells was 63 nM; in the test with MIA PaCa-2 cells, 14 nM; with AsPC-1 cells it was 68 nM; in test [1], 34 nM.
